Publication doi:10.1101/2025.11.20.689572v1 (biorxiv, 2025)
Where two headings read alike, the source gives them in different places.

Assays:
[1] = biological target: T1, SSTR4 (Homo sapiens, UniProt P31391); experiment: cell-based; parameters: PRESTO-Tango beta-arrestin2 recruitment, luciferase luminescence, concentration-response; conditions: HTLA, read-out: N-Desmethyl Xanomeline; Assay=Tango; agonist mode, % of control agonist
Procedure: (§1) Off-target agonism across the human GPCRome was profiled using PRESTO-Tango, following established protocols with minor adaptations [10]–[12]. […] After ~6 h recovery, cells were transfected with 20 ng plasmid DNA per well and incubated overnight. The next day, 10 µL of test compound (prepared in DMEM + 1% dFBS) was added, and plates were incubated overnight. Media and compounds were removed, and 20 µL per well of Bright-Glo luciferase reagent diluted in assay buffer (Hank’s Balanced Salt Solution (HBSS), 20 mM HEPES, pH 7.4) was added. After 20 min at room temperature (dark), luminescence was recorded. Each plate included the dopamine D2 receptor (DRD2) stimulated with 100 nM quinpirole as a positive control. For the GPCRome screen, each receptor was tested in quadruplicate at 0 and 10 µM compound (final). Responses were expressed as fold change relative to the basal (0 µM) condition. Follow-up concentration–response assays were performed under identical conditions except that serial dilutions of compounds (maximum ~30 µM, final) were added to generate full concentration–response curves.

[2] = biological target: CHRM3 (Homo sapiens, UniProt P20309); experiment: cell-based; parameters: species or system HTLA; PRESTO-Tango beta-arrestin2 recruitment, luciferase luminescence, concentration-response; conditions: Assay=Tango; agonist mode
[3] = biological target: T1, SSTR4; experiment: cell-based; parameters: species or system HTLA; PRESTO-Tango beta-arrestin2 recruitment, luciferase luminescence, concentration-response; conditions: Assay=Tango; agonist mode
[4] = biological target: T2, HTR2A (Homo sapiens, UniProt P28223); experiment: cell-based; parameters: Fluo-4 Direct calcium mobilization on FLIPR-Tetra; conditions: HEK293, read-out: N-Desmethyl Xanomeline; Assay=Calcium; agonist mode, % of control agonist
[5] = biological target: T2, HTR2A; experiment: cell-based; parameters: TRUPATH BRET2 G-protein dissociation; antagonist mode against agonist EC80; conditions: HEK293, read-out: N-Desmethyl Xanomeline, Assay=Gq; agonist mode, % of control agonist
[6] = biological target: T3, α1A (Homo sapiens, UniProt P35348); experiment: competitive radioligand binding, HEK293 membranes; parameters: gene ADRA1A; full-length receptor; HEK293 cell membranes
Excerpt: competitive radioligand binding, HEK293 membranes on α1A

[7] = biological target: T4, D1 (Homo sapiens, UniProt P21728); experiment: competitive radioligand binding, HEK293 membranes
T4 construct: gene DRD1; full-length receptor; HEK293 cell membranes
Excerpt: competitive radioligand binding, HEK293 membranes on D1

[8] = biological target: T5, 5-HT5A (Homo sapiens, UniProt P47898); experiment: competitive radioligand binding, HEK293 membranes
T5 construct: gene HTR5A; full-length receptor; HEK293 cell membranes
Excerpt: competitive radioligand binding, HEK293 membranes on 5-HT5A

[9] = biological target: T6, DRD4 (Homo sapiens, UniProt P21917); experiment: cell-based; parameters: PRESTO-Tango beta-arrestin2 recruitment, luciferase luminescence, concentration-response; conditions: HTLA, read-out: Xanomeline; Assay=Tango; agonist mode, % of control agonist
T6 sequence (P21917 1-419): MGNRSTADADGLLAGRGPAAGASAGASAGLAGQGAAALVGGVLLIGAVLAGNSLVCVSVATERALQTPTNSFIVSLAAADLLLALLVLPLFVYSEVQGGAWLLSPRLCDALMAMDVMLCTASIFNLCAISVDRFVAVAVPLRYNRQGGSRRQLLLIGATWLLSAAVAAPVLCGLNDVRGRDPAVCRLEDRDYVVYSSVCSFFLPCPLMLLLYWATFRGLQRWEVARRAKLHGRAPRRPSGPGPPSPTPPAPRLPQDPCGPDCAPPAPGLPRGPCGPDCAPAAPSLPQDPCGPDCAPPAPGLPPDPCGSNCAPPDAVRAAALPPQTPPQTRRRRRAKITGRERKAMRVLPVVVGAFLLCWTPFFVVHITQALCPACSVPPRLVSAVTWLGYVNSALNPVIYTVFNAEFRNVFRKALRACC
Procedure: as §1

[10] = biological target: T6, DRD4; experiment: cell-based; parameters: species or system HTLA; PRESTO-Tango beta-arrestin2 recruitment, luciferase luminescence, concentration-response; conditions: Assay=Tango; agonist mode
[11] = biological target: T3, α1A; experiment: biochemical; parameters: gene ADRA1A; species or system HEK293; PDSP competitive radioligand binding, membranes of transfected HEK293 cells, filtration, Ki by Cheng-Prusoff
Procedure: Competitive radioligand binding assays were performed at the NIMH Psychoactive Drug Screening Program (PDSP) using membranes from transiently transfected HEK293 cells in 96-well format as described. Complete, target-specific protocols are available at the PDSP website (https://pdsp.unc.edu/pdspweb/?site=assays). Primary screenings were run at a single test concentration (10 µM) in quadruplicate. […] Secondary assays were conducted in triplicate using 12-point serial dilutions (0, 0.1, 0.3, 1, 3, 10, 30, 100, 300 nM; 1, 3, 10 µM). Assays were performed in a final volume of 125 µL per well in binding buffer, as detailed in the NIMH PDSP protocols (e.g., standard binding buffer: 50 mM Tris-HCl, pH 7.4, 10 mM MgCl2, 0.1 mM EDTA). Radioligand concentrations were chosen near the target-specific Kd. […] After 90 min incubation at room temperature, reactions were terminated by vacuum filtration onto 0.3% polyethyleneimine-pretreated UniFilter-96 GF/C Microplates using a FilterMate harvester, washed three times with ice-cold buffer (50 mM Tris HCl, pH 7.4), dried, treated with MicroScint-O [compound left out] scintillation cocktails, and counted on a MicroBeta counter. Equilibrium inhibition constants (Ki) were calculated from fitted IC50 values using the Cheng–Prusoff equation [14] with the assay-specific radioligand concentration and Kd. […] ND=not determined.

T1 sequence (P31391 whole entry): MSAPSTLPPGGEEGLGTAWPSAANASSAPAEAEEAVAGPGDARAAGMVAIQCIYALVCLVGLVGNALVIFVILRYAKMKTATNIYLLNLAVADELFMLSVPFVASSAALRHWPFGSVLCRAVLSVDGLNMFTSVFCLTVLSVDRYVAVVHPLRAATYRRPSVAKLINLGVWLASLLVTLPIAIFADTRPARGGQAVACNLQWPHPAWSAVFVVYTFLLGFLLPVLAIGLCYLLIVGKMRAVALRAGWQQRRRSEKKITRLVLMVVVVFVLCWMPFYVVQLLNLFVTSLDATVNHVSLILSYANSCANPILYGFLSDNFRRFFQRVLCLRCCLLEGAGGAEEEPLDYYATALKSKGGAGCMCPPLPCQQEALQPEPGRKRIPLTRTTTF
T3 sequence (P35348 whole entry): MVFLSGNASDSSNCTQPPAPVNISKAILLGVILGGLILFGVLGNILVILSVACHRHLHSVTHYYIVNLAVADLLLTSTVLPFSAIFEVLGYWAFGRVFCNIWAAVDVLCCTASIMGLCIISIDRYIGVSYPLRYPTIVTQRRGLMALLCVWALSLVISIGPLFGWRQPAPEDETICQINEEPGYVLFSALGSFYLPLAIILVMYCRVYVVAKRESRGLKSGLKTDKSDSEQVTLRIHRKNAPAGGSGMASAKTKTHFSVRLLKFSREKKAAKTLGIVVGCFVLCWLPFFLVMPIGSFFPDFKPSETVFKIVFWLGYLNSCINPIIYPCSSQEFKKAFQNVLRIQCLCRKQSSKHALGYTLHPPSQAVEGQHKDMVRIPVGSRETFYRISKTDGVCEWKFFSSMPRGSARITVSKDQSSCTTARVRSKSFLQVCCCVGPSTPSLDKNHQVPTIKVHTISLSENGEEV
T2 sequence (P28223 whole entry): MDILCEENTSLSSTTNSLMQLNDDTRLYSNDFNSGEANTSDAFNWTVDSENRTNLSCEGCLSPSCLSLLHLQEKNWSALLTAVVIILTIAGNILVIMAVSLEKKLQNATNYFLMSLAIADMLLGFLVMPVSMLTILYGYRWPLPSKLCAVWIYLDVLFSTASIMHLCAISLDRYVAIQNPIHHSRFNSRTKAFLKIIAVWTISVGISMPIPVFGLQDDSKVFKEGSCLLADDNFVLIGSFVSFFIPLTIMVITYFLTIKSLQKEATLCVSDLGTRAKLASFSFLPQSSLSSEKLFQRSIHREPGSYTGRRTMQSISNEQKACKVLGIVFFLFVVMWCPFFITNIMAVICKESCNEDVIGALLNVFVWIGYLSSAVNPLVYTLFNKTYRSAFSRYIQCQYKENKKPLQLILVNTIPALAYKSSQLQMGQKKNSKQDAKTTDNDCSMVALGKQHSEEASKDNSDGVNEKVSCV
CHRM3, sequence (P20309 whole entry): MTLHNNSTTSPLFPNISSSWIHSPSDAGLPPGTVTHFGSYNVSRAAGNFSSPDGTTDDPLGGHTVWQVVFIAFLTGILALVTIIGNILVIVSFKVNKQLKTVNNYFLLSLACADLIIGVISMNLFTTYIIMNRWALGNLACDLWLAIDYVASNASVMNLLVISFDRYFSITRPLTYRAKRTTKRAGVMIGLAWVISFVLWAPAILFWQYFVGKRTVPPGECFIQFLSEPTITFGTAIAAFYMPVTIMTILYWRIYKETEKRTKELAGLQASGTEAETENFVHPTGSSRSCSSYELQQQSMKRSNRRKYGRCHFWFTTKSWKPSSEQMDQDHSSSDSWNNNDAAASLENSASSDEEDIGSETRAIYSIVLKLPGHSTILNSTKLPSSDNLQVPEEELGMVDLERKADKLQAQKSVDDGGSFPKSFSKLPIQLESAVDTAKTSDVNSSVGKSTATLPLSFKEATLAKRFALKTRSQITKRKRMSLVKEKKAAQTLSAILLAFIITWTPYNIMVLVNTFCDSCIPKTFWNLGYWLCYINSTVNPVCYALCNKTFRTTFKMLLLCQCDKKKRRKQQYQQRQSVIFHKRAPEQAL
T5 sequence (P47898 whole entry): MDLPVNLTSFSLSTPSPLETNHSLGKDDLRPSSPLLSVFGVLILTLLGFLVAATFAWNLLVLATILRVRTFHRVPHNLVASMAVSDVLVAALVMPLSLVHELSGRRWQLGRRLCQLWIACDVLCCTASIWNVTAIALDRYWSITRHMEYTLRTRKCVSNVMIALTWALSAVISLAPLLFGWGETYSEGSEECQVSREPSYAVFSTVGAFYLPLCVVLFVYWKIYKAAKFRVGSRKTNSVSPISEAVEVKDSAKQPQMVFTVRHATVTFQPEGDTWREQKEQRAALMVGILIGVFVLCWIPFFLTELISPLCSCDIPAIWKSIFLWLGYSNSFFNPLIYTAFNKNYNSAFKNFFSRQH
T4 sequence (P21728 whole entry): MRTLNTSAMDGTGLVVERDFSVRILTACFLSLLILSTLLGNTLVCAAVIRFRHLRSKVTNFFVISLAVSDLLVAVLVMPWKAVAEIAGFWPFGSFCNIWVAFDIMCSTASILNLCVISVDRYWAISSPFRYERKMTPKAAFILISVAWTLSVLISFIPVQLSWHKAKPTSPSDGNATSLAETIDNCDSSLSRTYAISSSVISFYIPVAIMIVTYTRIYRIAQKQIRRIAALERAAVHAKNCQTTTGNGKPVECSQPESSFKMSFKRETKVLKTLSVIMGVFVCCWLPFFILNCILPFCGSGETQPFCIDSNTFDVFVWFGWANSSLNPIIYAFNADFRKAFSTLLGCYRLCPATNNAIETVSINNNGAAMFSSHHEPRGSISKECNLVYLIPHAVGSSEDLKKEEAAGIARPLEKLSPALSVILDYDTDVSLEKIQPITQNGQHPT

| SMILES | Emax [1] | EC50 [2] | EC50 [3] | Emax [4] | Emax [5] | Ki [6] | Ki [7] | Ki [8] | Emax [9] | EC50 [10] | Ki [11] |
| --- | --- | --- | --- | --- | --- | --- | --- | --- | --- | --- | --- |
| CCCCCCOc1nsnc1C1=CCCNC1 [N-desmethylxanomeline] | 2.88% | 104 nM | 931 nM | 63.4% | 98.1% | 282 nM |  |  |  |  |  |
| CCCCCCOc1nsnc1C1=CCCN(C)C1 [Xanomeline] |  |  |  |  |  |  | 1580 nM | 794 nM | 11.4% | 4800 nM | > 10000 nM |
